# Source: the supplement of paper PMC10307832
# Legend:
# Test in all cases: relative viability (nuclei count vs DMSO), 5 days (fraction); higher = more cells survive
# NCI-H1734 = test system: NCI-H1734
# How it was run: (§1)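 One day after seeding in 1536-well plates, lung cancer cell lines were dosed by pin tool. Dosing was either single-drug or a fixed anchor-drug dose plus five library-drug doses (not always all listed) in √10 steps. After 5 days, nuclei were stained in one fix-and-stain step and counted on 4× images, and relative viability is the nuclei count of treated wells over that of vehicle wells, given as the median of duplicate plates.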
# NCI-H1755 = test system: NCI-H1755
# How it was run: as §1
# NCI-H1355 = test system: NCI-H1355
# How it was run: as §1
# NCI-H596 = test system: NCI-H596
# How it was run: as §1
# NCI-H2342 = test system: NCI-H2342
# How it was run: as §1
# LK-2 = test system: LK-2
# How it was run: as §1
# LCLC-97TM1 = test system: LCLC-97TM1
# How it was run: as §1
# HCC-78 = test system: HCC-78
# How it was run: as §1
# NCI-H2126 = test system: NCI-H2126
# How it was run: as §1
# NCI-H1944 = test system: NCI-H1944
# How it was run: as §1
# NCI-H1975 = test system: NCI-H1975
# How it was run: as §1
# PC-3 [JPC-3] = test system: PC-3 [JPC-3]
# How it was run: as §1
# NCI-H2405 = test system: NCI-H2405
# How it was run: as §1
# NCI-H727 = test system: NCI-H727
# How it was run: as §1
# ChaGo-K-1 = test system: ChaGo-K-1
# How it was run: as §1
# NCI-H1648 = test system: NCI-H1648
# How it was run: as §1
# NCI-H23 = test system: NCI-H23
# How it was run: as §1
# NCI-H1993 = test system: NCI-H1993
# How it was run: as §1
# HOP-62 = test system: HOP-62
# How it was run: as §1
# NCI-H1650 = test system: NCI-H1650
# How it was run: as §1
# NCI-H460 = test system: NCI-H460
# How it was run: as §1
# NCI-H358 = test system: NCI-H358
# How it was run: as §1
# NCI-H2228 = test system: NCI-H2228
# How it was run: as §1
smiles,measurement,setting,value
Nc1cccc2c1CN(C1CCC(=O)NC1=O)C2=O (stereo not drawn) [Lenalidomide] + CC(=O)Nc1cccc(-n2c(=O)n(C3CC3)c(=O)c3c(Nc4ccc(I)cc4F)n(C)c(=O)c(C)c32)c1 [Trametinib] (partner 0.02 µM),relative viability,NCI-H1734; first compound 0.253 µM,0.69
same,relative viability,NCI-H1734; first compound 0.8 µM,0.606
same,relative viability,NCI-H1734; first compound 2.53 µM,0.702
same,relative viability,NCI-H1734; first compound 8 µM,0.605
same,relative viability,NCI-H1755; first compound 0.253 µM,0.729
same,relative viability,NCI-H1755; first compound 0.8 µM,0.806
same,relative viability,NCI-H1755; first compound 2.53 µM,0.766
same,relative viability,NCI-H1755; first compound 8 µM,0.63
same,relative viability,NCI-H1355; first compound 0.253 µM,0.431
same,relative viability,NCI-H1355; first compound 0.8 µM,0.316
same,relative viability,NCI-H1355; first compound 2.53 µM,0.402
same,relative viability,NCI-H1355; first compound 8 µM,0.267
same,relative viability,NCI-H596; first compound 0.253 µM,0.73
same,relative viability,NCI-H596; first compound 0.8 µM,0.83
same,relative viability,NCI-H596; first compound 2.53 µM,0.938
same,relative viability,NCI-H596; first compound 8 µM,0.766
same,relative viability,NCI-H2342; first compound 0.253 µM,0.796
same,relative viability,NCI-H2342; first compound 0.8 µM,0.894
same,relative viability,NCI-H2342; first compound 2.53 µM,0.739
same,relative viability,NCI-H2342; first compound 8 µM,0.692
same,relative viability,LK-2; first compound 0.253 µM,0.772
same,relative viability,LK-2; first compound 0.8 µM,0.747
same,relative viability,LK-2; first compound 2.53 µM,0.746
same,relative viability,LK-2; first compound 8 µM,0.717
same,relative viability,LCLC-97TM1; first compound 0.253 µM,0.183
same,relative viability,LCLC-97TM1; first compound 0.8 µM,0.239
same,relative viability,LCLC-97TM1; first compound 2.53 µM,0.212
same,relative viability,LCLC-97TM1; first compound 8 µM,0.159
same,relative viability,HCC-78; first compound 0.253 µM,0.728
same,relative viability,HCC-78; first compound 0.8 µM,0.633
same,relative viability,HCC-78; first compound 2.53 µM,0.692
same,relative viability,HCC-78; first compound 8 µM,0.822
same,relative viability,NCI-H2126; first compound 0.253 µM,0.572
same,relative viability,NCI-H2126; first compound 0.8 µM,0.526
same,relative viability,NCI-H2126; first compound 2.53 µM,0.597
same,relative viability,NCI-H2126; first compound 8 µM,0.462
same,relative viability,NCI-H1944; first compound 0.253 µM,0.385
same,relative viability,NCI-H1944; first compound 2.53 µM,0.427
same,relative viability,NCI-H1944; first compound 8 µM,0.395
same,relative viability,NCI-H1975; first compound 0.253 µM,0.388
same,relative viability,NCI-H1975; first compound 0.8 µM,0.201
same,relative viability,NCI-H1975; first compound 2.53 µM,0.36
same,relative viability,NCI-H1975; first compound 8 µM,0.234
same,relative viability,PC-3 [JPC-3]; first compound 0.253 µM,0.705
same,relative viability,PC-3 [JPC-3]; first compound 0.8 µM,0.681
same,relative viability,PC-3 [JPC-3]; first compound 2.53 µM,0.731
same,relative viability,PC-3 [JPC-3]; first compound 8 µM,0.743
same,relative viability,NCI-H2405; first compound 0.253 µM,0.648
same,relative viability,NCI-H2405; first compound 0.8 µM,0.657
same,relative viability,NCI-H2405; first compound 2.53 µM,0.654
same,relative viability,NCI-H2405; first compound 8 µM,0.546
same,relative viability,NCI-H727; first compound 0.253 µM,0.383
same,relative viability,NCI-H727; first compound 0.8 µM,0.378
same,relative viability,NCI-H727; first compound 2.53 µM,0.35
same,relative viability,NCI-H727; first compound 8 µM,0.376
same,relative viability,ChaGo-K-1; first compound 0.253 µM,0.925
same,relative viability,ChaGo-K-1; first compound 0.8 µM,0.897
same,relative viability,ChaGo-K-1; first compound 2.53 µM,1.02
same,relative viability,ChaGo-K-1; first compound 8 µM,0.904
same,relative viability,NCI-H1648; first compound 0.253 µM,0.556
same,relative viability,NCI-H1648; first compound 2.53 µM,0.597
same,relative viability,NCI-H1648; first compound 8 µM,0.476
same,relative viability,NCI-H23; first compound 0.253 µM,0.398
same,relative viability,NCI-H23; first compound 2.53 µM,0.426
same,relative viability,NCI-H23; first compound 8 µM,0.412
same,relative viability,NCI-H1993; first compound 0.253 µM,0.491
same,relative viability,NCI-H1993; first compound 0.8 µM,0.503
same,relative viability,NCI-H1993; first compound 2.53 µM,0.474
same,relative viability,NCI-H1993; first compound 8 µM,0.518
same,relative viability,HOP-62; first compound 0.253 µM,0.34
same,relative viability,HOP-62; first compound 0.8 µM,0.338
same,relative viability,HOP-62; first compound 2.53 µM,0.4
same,relative viability,HOP-62; first compound 8 µM,0.363
same,relative viability,NCI-H1650; first compound 0.253 µM,0.421
same,relative viability,NCI-H1650; first compound 0.8 µM,0.432
same,relative viability,NCI-H1650; first compound 2.53 µM,0.551
same,relative viability,NCI-H1650; first compound 8 µM,0.684
same,relative viability,NCI-H460; first compound 0.253 µM,0.0785
same,relative viability,NCI-H460; first compound 0.8 µM,0.13
same,relative viability,NCI-H460; first compound 2.53 µM,0.127
same,relative viability,NCI-H460; first compound 8 µM,0.19
same,relative viability,NCI-H358; first compound 0.8 µM,0.132
same,relative viability,NCI-H358; first compound 2.53 µM,0.133
same,relative viability,NCI-H358; first compound 8 µM,0.19
same,relative viability,NCI-H2228; first compound 0.253 µM,0.629
same,relative viability,NCI-H2228; first compound 0.8 µM,0.315
same,relative viability,NCI-H2228; first compound 2.53 µM,0.695
same,relative viability,NCI-H2228; first compound 8 µM,0.363
